Test results reported in PMC9227578, “Insight into the Molecular Mechanism for the Discrepant Inhibition of Microcystins (MCLR, LA, LF, LW, LY) on Protein Phosphatase 2A” (Toxins, 2022).

Tested on: PP2A
Test: colorimetric protein phosphatase (PP2A) inhibition assay
Type: biochemical
Description: The biological toxicity of the typical MCs was evaluated by a colorimetric protein phosphatase inhibition assay modified by Zong et al.. First, PP2A was diluted to 5 U/mL with a buffer solution (50 mM Tris-HCl pH 7.4, 2.0 mM dithiothreitol, 1 mM MnCl2) and 1.0 g/L bovine serum albumin. Then, 10 μL of PP2A and 100 μL of test samples were mixed in a 96-well polystyrene microplate. With gentle shaking, the microtiter plates were kept at 25.0 °C for 15 min, and 90 μL p-nitrophenyl disodium orthophosphate (5 mM) was added. After 1 h, the absorbances at 405 nm were measured in a microplate reader. The inhibition of the test samples on PP2A was calculated by the formula of IPP2A (%) = (Acontrol − Asample)/Acontrol × 100%. Acontrol and Asample were the absorbance of the reference sample ([…]) and the test sample at 405 nm, respectively.

Substance	inhibition sequence on PP2A	inhibition effect on PP2A
MCLA	MCLR > MCLW > MCLA > MCLF > MCLY	
MCLF	MCLR > MCLW > MCLA > MCLF > MCLY	
MCLR	MCLR > MCLW > MCLA > MCLF > MCLY	much higher inhibition effect than other MCs
MCLY	MCLR > MCLW > MCLA > MCLF > MCLY	lower inhibition
